Assay results reported in patent publication US8133871B2, “Dihydropseudoerythromycin derivatives” (The Kitasato Institute, priority 2005, dated 2012).
≈ marks a conversion by molar mass, not a printed value. Like-named read-outs stand apart in the source and are kept apart here.

Columns and labels:
THP-1 cells = assay: THP-1 differentiation induction-promoting activity; type: cell-based; conditions: Homo sapiens, THP-1; lowest concentration necessary to show 50% activity relative to the activity value of erythromycin A at 100 μM; PMA 1-2 μM, 72-96 hr
Protocol: As one index of the anti-inflammatory action of the compound of the present invention, the differentiation induction-promoting activity of THP-1 cell was measured. The measurement was performed as shown below.
THP-1 cells (ATCC No. TIB-202) were adjusted to a concentration of 2×10^5 cells/ml with a medium (RPMI 1640), PMA was added thereto to a final concentration of 1-2 μM, and the mixture was dispensed to each well of a 96 well plate by 100 μl. A solution (100 μl) containing a test substance was adjusted to an appropriate concentration with the medium and added to each well. The mixture was stirred by gently shaking the plate, and incubated under 37° C., 5% CO2 conditions for 72-96 hr. Each well was washed with PBS, a medium containing the viable cell measurement reagent SF (Nacalai Tesque) was added at 100 μl/well and the mixture was incubated under the conditions of 37° C., 5% CO2 for 3-5 hr. The absorbance was measured with a plate reader.
In the Table, the activity value is the lowest concentration necessary for the test compound to show a 50% activity value relative to the activity value of erythromycin A at 100 μM in this experiment.
THP-1 differentiation induction-promoting activity: The lowest concentration necessary for each compound to show 50% activity relative to the activity value of erythromycin A at 100 μM.

E. coli NIHJ JC-2 = assay: antibacterial activity, MIC (NCCLS method); type: cell-based; conditions: Escherichia coli, NIHJJC2
Protocol: (§1) The antibacterial activity of the compound of the present invention and erythromycin were measured according to the antibacterial sensitivity measurement method of the US National Committee for Clinical Laboratory Standards (NCCLS). The values of minimum inhibitory concentration (MIC) (μg/ml) of each compound against bacteria are shown therein.

S. aureus FDA209P = assay: antibacterial activity, MIC (NCCLS method); type: cell-based; conditions: Staphylococcus aureus
Protocol: as §1

E. aerogen NCTC10006 = assay: antibacterial activity, MIC (NCCLS method); type: cell-based
Protocol: as §1

K. pneumoniae NCTN9632 = assay: antibacterial activity, MIC (NCCLS method); type: cell-based; conditions: Klebsiella pneumoniae
Protocol: as §1

E. faecalis ATCC21212 = assay: antibacterial activity, MIC (NCCLS method); type: cell-based; conditions: Enterococcus faecalis
Protocol: as §1

S. marcescens IFO12648 = assay: antibacterial activity, MIC (NCCLS method); type: cell-based; conditions: Serratia marcescens
Protocol: as §1

A. calcoaceticus IFO2552 = assay: antibacterial activity, MIC (NCCLS method); type: cell-based; conditions: Acinetobacter calcoaceticus
Protocol: as §1

S. epidermidis IFO12648 = assay: antibacterial activity, MIC (NCCLS method); type: cell-based; conditions: Staphylococcus epidermidis
Protocol: as §1

M. luteus ATCC9341 = assay: antibacterial activity, MIC (NCCLS method); type: cell-based; conditions: Micrococcus luteus
Protocol: as §1

S. aureus 8325 (pEP2104) = assay: antibacterial activity, MIC (NCCLS method); type: cell-based; conditions: Staphylococcus aureus
Protocol: as §1

S. aureus Smith = assay: antibacterial activity, MIC (NCCLS method); type: cell-based; conditions: Staphylococcus aureus
Protocol: as §1

[1] = system: trinitrobenzene sulfonate (TNBS)-induced colitis; assay: TNBS-induced colitis in rats, damage of the large intestine scored by the method of Wallace et al.; type: in vivo; conditions: rat TNBS colitis, oral, control 4.27 ± 0.38
Protocol: As an index of the treatment effect of the compound of the present invention on ulcerative colitis and Crohn's disease, an action on trinitrobenzene sulfonate (hereinafter to be indicated as TNBS)-induced colitis was examined using rats. Using 8-week-old male SD rats under pentobarbital anesthesia, TNBS solution was injected into the rectum of animals after fasting for 24 hr or longer and abstaining from water for 5 hr or longer. After injection, a silicone stopper was inserted into the anus to perform a treatment for 3.5-4 hr, whereby a colitis model was prepared. Two days after TNBS administration, model animals were selected based on the fecal occult blood score (fecal occult blood slide 5 shionogi II, Shionogi & Co. Ltd.), body weight and body weight changes, feeding condition, observation score of around anus and bleeding. A test drug was orally administered to the model animals two times a day for 6 days. On the next day of the final drug administration, the large intestine (about 15 cm from the anus) was removed after decapitation and exsanguination, and the level of damage was scored by the method of Wallace et al. (Wallace, J. L. et al, Inhibition of leukotriene synthesis markedly accelerates healing in a rat model of inflammatory bowel disease. Gastroenterology 96, 2936 (1989)), based on which the efficacy was evaluated.

[2] = dose 10 × 2 (mg/kg)/day for 6 days
[3] = dose 30 × 2 (mg/kg)/day for 6 days
[4] = E. coli NIHJ JC-2 2002.1.31, read-out: MIC
[5] = S. aureus FDA209P 2002.1.31, read-out: MIC
[6] = K. pneumoniae NCTN9632 2002.1.31, read-out: MIC
[7] = E. faecalis ATCC21212 2002.1.31, read-out: MIC
[8] = A. calcoaceticus IFO2552 2002.2.1, read-out: MIC
[9] = S. epidermidis IFO12648 2002.1.31, read-out: MIC
[10] = M. luteus ATCC9341 2002.1.31, read-out: MIC
[11] = S. aureus Smith 2002.1.31, read-out: MIC

Row | Structure (SMILES) | minimal effective concentration (THP-1 cells) | MIC (E. coli NIHJ JC-2) | MIC (S. aureus FDA209P; FDA209P) | MIC (E. aerogen NCTC10006) | MIC (K. pneumoniae NCTN9632; NCTN9632) | MIC (E. faecalis ATCC21212; ATCC21212) | MIC (S. marcescens IFO12648; IFO12648) | MIC (A. calcoaceticus IFO2552; IFO2552) | MIC (S. epidermidis IFO12648; IFO12648) | MIC (M. luteus ATCC9341; ATCC9341) | MIC (S. aureus 8325 (pEP2104)) | MIC (S. aureus Smith) | Inflammation score in ulcer [1, 2] | Inflammation score in ulcer [1, 3] | MIC (E. coli NIHJ JC-2; [4]) | MIC (S. aureus FDA209P; [5]) | MIC (K. pneumoniae NCTN9632; [6]) | MIC (E. faecalis ATCC21212; [7]) | MIC (A. calcoaceticus IFO2552; [8]) | MIC (M. luteus ATCC9341; [10]) | also measured
1 | CC[C@@H](O)[C@@](C)(O)[C@@H]1OC(=O)[C@H](C)[C@@H](O[C@H]2CC(C)(OC)[C@@H](O)C(C)O2)[C@H](C)[C@@H](O[C@@H]2OC(C)CC(NC)C2O)[C@@]2(C)CC(C)C(O2)[C@@H]1C (stereo partly shown) [EM901, de(3′-N-methyl)-9-dihydro-pseudoerythromycin A 6,9-epoxide] | 30 µM | > 128 µg/mL | > 128 µg/mL | > 128 µg/mL | > 128 µg/mL | > 128 µg/mL | > 128 µg/mL | > 128 µg/mL | > 128 µg/mL | > 128 µg/mL | > 128 µg/mL | > 128 µg/mL |  |  |  |  |  |  |  |  | 
2 | CC[C@@H](O)[C@@](C)(O)[C@@H]1OC(=O)[C@H](C)[C@@H](O[C@H]2CC(C)(OC)[C@@H](O)C(C)O2)[C@H](C)[C@@H](O[C@@H]2OC(C)CC(N3CCOCC3)C2O)[C@]2(C)CC(C)C(O2)[C@@H]1C (stereo partly shown) [EM914, de(3′-dimethylamino)-3′-morpholino-9-dihydro-pseudoerythromycin A 6,9-epoxide] | 100 µM | > 128 µg/mL | > 128 µg/mL | > 128 µg/mL | > 128 µg/mL | > 128 µg/mL | > 128 µg/mL | > 128 µg/mL |  |  | > 128 µg/mL | > 128 µg/mL | 2.93 ± 0.41 | 2.69 ± 0.33 |  |  |  |  |  |  | 
3 | CC[C@H]1OC(=O)[C@H](C)[C@@H](O[C@H]2C[C@@](C)(OC)[C@@H](O)[C@H](C)O2)[C@H](C)[C@@H](O[C@@H]2O[C@H](C)C[C@H](N(C)C)[C@H]2O)[C@](C)(O)C[C@@H](C)C(=O)[C@H](C)[C@@H](O)[C@]1(C)O [erythromycin] |  |  |  | 128 µg/mL (≈ 174 µM) |  |  | 128 µg/mL (≈ 174 µM) |  |  |  | 64 µg/mL (≈ 87.2 µM) |  |  |  | 64 µg/mL (≈ 87.2 µM) | ≤ 0.5 µg/mL | 32 µg/mL (≈ 43.6 µM) | 1 µg/mL (≈ 1.36 µM) | 4 µg/mL (≈ 5.45 µM) | ≤ 0.5 µg/mL | MIC (S. epidermidis IFO12648; [9]): ≤ 0.5 µg/mL; MIC (S. aureus Smith; [11]): ≤ 0.5 µg/mL
4 | CC[C@H]1OC(=O)O[C@@]1(C)[C@@H]1OC(=O)[C@H](C)C(=O)[C@H](C)[C@@H](O[C@@H]2OC(C)CC(N(C)Cc3ccc(Cl)cc3)C2O)[C@]2(C)CC(C)C(O2)[C@@H]1C (stereo partly shown) [EM939, de(3′-N-methyl)-3′-N-(p-chlorobenzyl)-de(3-O-cladinosyl)-9-dihydro-3-keto-pseudoerythromycin A 6,9-epoxide 12,13-carbonate] | 3 µM |  |  |  |  |  |  |  |  |  | > 64 µg/mL |  |  |  | > 64 µg/mL | > 64 µg/mL | > 64 µg/mL | > 64 µg/mL | > 64 µg/mL | > 64 µg/mL | MIC (E. aerogen NCTC10006; E. aerogen NCTC10006 2002.2.1, read-out: MIC): > 64 µg/mL; MIC (S. marcescens IFO12648; S. marcescens IFO12648 2002.2.1, read-out: MIC): > 64 µg/mL; MIC (S. epidermidis IFO12648; [9]): > 64 µg/mL; MIC (S. aureus Smith; [11]): > 64 µg/mL
5 | CC[C@@H](O)[C@@](C)(O)[C@@H]1OC(=O)[C@H](C)[C@@H](O[C@H]2CC(C)(OC)[C@@H](O)C(C)O2)[C@H](C)[C@@H](O[C@@H]2OC(C)CC(N(C)C)C2O)[C@@]2(C)CC(C)C(O2)[C@@H]1C (stereo partly shown) [EM900, 9-dihydro-pseudoerythromycin A 6,9-epoxide] | 30 µM | > 128 µg/mL | > 128 µg/mL | > 128 µg/mL | > 128 µg/mL | > 128 µg/mL | > 128 µg/mL | > 128 µg/mL | > 128 µg/mL |  | > 128 µg/mL | > 128 µg/mL |  |  |  |  |  |  |  | 128 µg/mL (≈ 178 µM) | 
6 | CC[C@@H](O)[C@@](C)(O)[C@@H]1OC(=O)[C@H](C)[C@@H](O[C@H]2CC(C)(OC)[C@@H](O)C(C)O2)[C@H](C)[C@H](O[C@@H]2OC(C)CC(N(C)Cc3ccc(Cl)cc3)C2O)[C@@]2(C)CC(C)C(O2)[C@@H]1C (stereo partly shown) [EM905, de(3′-N-methyl)-3′-N-(p-chlorobenzyl)-9-dihydro-pseudoerythromycin A 6,9-epoxide] | 3 µM | > 128 µg/mL | > 128 µg/mL | > 128 µg/mL | > 128 µg/mL | > 128 µg/mL | > 128 µg/mL | > 128 µg/mL | > 128 µg/mL | > 128 µg/mL | > 128 µg/mL | > 128 µg/mL | 3.29 ± 0.22 | 2.67 ± 0.40 |  |  |  |  |  |  | 
